Molecular target: T1, neuropilin 1 (Nrp1) (Mus musculus, UniProt P97333)
T1 construct: a1a2 domain (residues 23−269), His6-tag, pCold-ProS2 vector, E. coli
T1 sequence (P97333 23-269): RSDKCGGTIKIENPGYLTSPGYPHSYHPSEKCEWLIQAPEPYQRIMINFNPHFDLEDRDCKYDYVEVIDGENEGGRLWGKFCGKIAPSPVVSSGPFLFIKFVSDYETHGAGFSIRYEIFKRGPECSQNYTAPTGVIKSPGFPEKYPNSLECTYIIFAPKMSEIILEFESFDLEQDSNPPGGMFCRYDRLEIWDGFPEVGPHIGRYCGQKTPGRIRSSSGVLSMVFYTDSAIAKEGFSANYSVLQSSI
Assay: quantitative fluorescent dot-blot saturation binding to purified a1a2

Kd: 114 ± 5 nM
Substance: d4t,8t-NBD-Ceramide

From PMC7072815, “Nrp1 is Activated by Konjac Ceramide Binding-Induced Structural Rigidification of the a1a2 Domain” (Cells, 2020)
